Data: ChEMBL document CHEMBL5715949, “Discovery of a selective irreversible BMX inhibitor for prostate cancer” (ACS Chem Biol, 2013)
Activity calls are given as the source filed them. The rule behind the calls is not given here.

How the values were obtained:
BaF3 [1] = assay: Antiproliferative activity against mouse BaF3 cells expressing TEL-fused JAK1 assessed growth inhibition incubated for 2 to 5 days by CellTiter-Glo assay; assay type: functional; conditions: time 2-5 day
[2] = biological target: Proto-oncogene tyrosine-protein kinase Src (Homo sapiens) (UniProt P12931); assay: Inhibition of SRC (unknown origin) assessed as remaining activity at 1 uM by Kinome scan method relative to control
[3] = biological target: Membrane-associated tyrosine- and threonine-specific cdc2-inhibitory kinase (Homo sapiens) (UniProt Q99640); assay: Inhibition of PKMYT1 (unknown origin) assessed as remaining activity at 1 uM by Kinome scan method relative to control
[4] = biological target: Protein kinase C eta type (Homo sapiens) (UniProt P24723); assay: Inhibition of PRKCH (unknown origin) assessed as remaining activity at 1 uM by Kinome scan method relative to control
[5] = biological target: LIM domain kinase 2 (Homo sapiens) (UniProt P53671); assay: Inhibition of LIMK2 (unknown origin) assessed as remaining activity at 1 uM by Kinome scan method relative to control
LNCaP C4-2 = assay: Antiproliferative activity against human C4-2 cells assessed growth inhibition incubated for 2 to 5 days by CellTiter-Glo assay; assay type: functional; conditions: time 2-5 day
RV-1 [6] = assay: Antiproliferative activity against human RV-1 cells assessed as reduction in cell viability at 500 to 2500 nM incubated for 5 days in presence of <25 nM MK2206 by CellTiter-Glo assay; assay type: functional, cell-based; conditions: dose 500-2500 nM, time 5.0 day
[7] = biological target: MAP/microtubule affinity-regulating kinase 3 (Homo sapiens) (UniProt P27448); assay: Inhibition of MARK3 (unknown origin) assessed as remaining activity at 1 uM by Kinome scan method relative to control
[8] = biological target: Phosphatidylinositol 4-kinase beta (Homo sapiens) (UniProt Q9UBF8); assay: Inhibition of PIK4CB (unknown origin) assessed as remaining activity at 1 uM by Kinome scan method relative to control
[9] = biological target: Tyrosine-protein kinase JAK1 (Homo sapiens) (UniProt P23458); assay: Inhibition of JAK1 JH2 domain (unknown origin) assessed as remaining activity at 1 uM by Kinome scan method relative to control
[10] = biological target: Mitogen-activated protein kinase 12 (Homo sapiens) (UniProt P53778); assay: Inhibition of P38gamma (unknown origin) assessed as remaining activity at 1 uM by Kinome scan method relative to control
BaF3 [11] = assay: Antiproliferative activity against mouse BaF3 cells expressing TEL-fused TYK2 […] mutant assessed growth inhibition incubated for 2 to 5 days by CellTiter-Glo assay; assay type: functional; conditions: time 2-5 day
[12] = biological target: Insulin receptor (Homo sapiens) (UniProt P06213); assay: Inhibition of INSR (unknown origin) assessed as remaining activity at 1 uM by Kinome scan method relative to control
[13] = biological target: STE20-like serine/threonine-protein kinase (Homo sapiens) (UniProt Q9H2G2); assay: Inhibition of SLK (unknown origin) assessed as remaining activity at 1 uM by Kinome scan method relative to control
[14] = Down regulation of BMX protein expression in human RV-1 cells expressing BMX C496S mutant assessed protein expression level at 2.5 uM pre incubated for 4 hrs followed by compound wash out and additon of CHX and measured after 16 hrs by immunoblot analysis (reference value: 1.01 to 1.13); assay type: functional
[15] = tested on: Tyrosine-protein kinase ABL1 (Homo sapiens), P00519 [E255K]; assay: Inhibition of phosphorylated ABL1 E255K mutant (unknown origin) assessed as remaining activity at 1 uM by Kinome scan method relative to control
[16] = tested on: Phosphatidylinositol 4,5-bisphosphate 3-kinase catalytic subunit alpha isoform (Homo sapiens), P42336 [H1047Y]; assay: Inhibition of PIK3CA H1047Y mutant (unknown origin) assessed as remaining activity at 1 uM by Kinome scan method relative to control
[17] = tested on: Mast/stem cell growth factor receptor Kit (Homo sapiens), P10721 [A829P]; assay: Inhibition of KIT A829P mutant (unknown origin) assessed as remaining activity at 1 uM by Kinome scan method relative to control
[18] = biological target: Bone morphogenetic protein receptor type-1A (Homo sapiens) (UniProt P36894); assay: Inhibition of BMPR1A (unknown origin) assessed as remaining activity at 1 uM by Kinome scan method relative to control
[19] = biological target: Serine/threonine-protein kinase Nek3 (Homo sapiens) (UniProt P51956); assay: Inhibition of NEK3 (unknown origin) assessed as remaining activity at 1 uM by Kinome scan method relative to control
RV-1 [20] = assay: Antiproliferative activity against human RV-1 cells assessed as reduction in cell viability at 500 to 2500 nM incubated for 5 days in presence of gefitinib by CellTiter-Glo assay; assay type: functional, cell-based; conditions: dose 500-2500 nM, time 5.0 day
[21] = biological target: Receptor-interacting serine/threonine-protein kinase 1 (Homo sapiens) (UniProt Q13546); assay: Inhibition of RIPK1 (unknown origin) assessed as remaining activity at 1 uM by Kinome scan method relative to control
[22] = biological target: Serine/threonine-protein kinase D2 (Homo sapiens) (UniProt Q9BZL6); assay: Inhibition of PRKD2 (unknown origin) assessed as remaining activity at 1 uM by Kinome scan method relative to control
[23] = biological target: SRSF protein kinase 1 (Homo sapiens) (UniProt Q96SB4); assay: Inhibition of SRPK1 (unknown origin) assessed as remaining activity at 1 uM by Kinome scan method relative to control
[24] = biological target: Ephrin type-B receptor 3 (Homo sapiens) (UniProt P54753); assay: Inhibition of EPHB3 (unknown origin) assessed as remaining activity at 1 uM by Kinome scan method relative to control
[25] = tested on: Hepatocyte growth factor receptor (Homo sapiens), P08581 [M1250T]; assay: Inhibition of MET M1250T mutant (unknown origin) assessed as remaining activity at 1 uM by Kinome scan method relative to control
[26] = biological target: Interleukin-1 receptor-associated kinase 4 (Homo sapiens) (UniProt Q9NWZ3); assay: Inhibition of IRAK4 (unknown origin) assessed as remaining activity at 1 uM by Kinome scan method relative to control
[27] = biological target: Aurora kinase A (Homo sapiens) (UniProt O14965); assay: Inhibition of AURKA (unknown origin) assessed as remaining activity at 1 uM by Kinome scan method relative to control
[28] = biological target: Rho-associated protein kinase 1 (Homo sapiens) (UniProt Q13464); assay: Inhibition of ROCK1 (unknown origin) assessed as remaining activity at 1 uM by Kinome scan method relative to control
[29] = biological target: Serine/threonine-protein kinase BRSK2 (Homo sapiens) (UniProt Q8IWQ3); assay: Inhibition of BRSK2 (unknown origin) assessed as remaining activity at 1 uM by Kinome scan method relative to control
[30] = biological target: Dual specificity mitogen-activated protein kinase kinase 2 (Homo sapiens) (UniProt P36507); assay: Inhibition of MEK2 (unknown origin) assessed as remaining activity at 1 uM by Kinome scan method relative to control
[31] = biological target: Serine/threonine-protein kinase 3 (Homo sapiens) (UniProt Q13188); assay: Inhibition of MST2 (unknown origin) assessed as remaining activity at 1 uM by Kinome scan method relative to control

Sequence of Serine/threonine-protein kinase Nek3 (Homo sapiens) (P51956 whole entry): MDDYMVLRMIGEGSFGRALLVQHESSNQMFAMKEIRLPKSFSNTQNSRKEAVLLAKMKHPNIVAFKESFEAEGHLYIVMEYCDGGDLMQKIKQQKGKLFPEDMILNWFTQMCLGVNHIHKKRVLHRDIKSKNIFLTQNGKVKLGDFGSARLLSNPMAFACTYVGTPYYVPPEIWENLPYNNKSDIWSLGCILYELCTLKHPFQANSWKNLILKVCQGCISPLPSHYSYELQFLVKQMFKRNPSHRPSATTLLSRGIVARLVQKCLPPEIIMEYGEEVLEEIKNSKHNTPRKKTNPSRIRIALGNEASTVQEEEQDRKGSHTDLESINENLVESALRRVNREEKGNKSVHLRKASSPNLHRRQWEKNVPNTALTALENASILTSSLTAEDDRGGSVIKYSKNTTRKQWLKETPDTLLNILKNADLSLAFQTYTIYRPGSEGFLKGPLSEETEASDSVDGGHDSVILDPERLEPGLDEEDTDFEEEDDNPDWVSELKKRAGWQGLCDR
Sequence of Dual specificity mitogen-activated protein kinase kinase 2 (Homo sapiens) (P36507 whole entry): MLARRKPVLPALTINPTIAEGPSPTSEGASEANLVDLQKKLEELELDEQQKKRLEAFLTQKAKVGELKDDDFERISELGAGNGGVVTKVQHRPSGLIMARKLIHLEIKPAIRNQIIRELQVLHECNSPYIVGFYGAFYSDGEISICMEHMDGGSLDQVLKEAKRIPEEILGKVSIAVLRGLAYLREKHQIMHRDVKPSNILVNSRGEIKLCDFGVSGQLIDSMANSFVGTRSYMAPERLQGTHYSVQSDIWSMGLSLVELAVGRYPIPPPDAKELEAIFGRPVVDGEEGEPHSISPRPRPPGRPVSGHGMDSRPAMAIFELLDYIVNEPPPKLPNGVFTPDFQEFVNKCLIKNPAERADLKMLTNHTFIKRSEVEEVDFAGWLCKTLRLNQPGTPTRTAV
Sequence of Mitogen-activated protein kinase 12 (Homo sapiens) (P53778 whole entry, the tested form may be a part): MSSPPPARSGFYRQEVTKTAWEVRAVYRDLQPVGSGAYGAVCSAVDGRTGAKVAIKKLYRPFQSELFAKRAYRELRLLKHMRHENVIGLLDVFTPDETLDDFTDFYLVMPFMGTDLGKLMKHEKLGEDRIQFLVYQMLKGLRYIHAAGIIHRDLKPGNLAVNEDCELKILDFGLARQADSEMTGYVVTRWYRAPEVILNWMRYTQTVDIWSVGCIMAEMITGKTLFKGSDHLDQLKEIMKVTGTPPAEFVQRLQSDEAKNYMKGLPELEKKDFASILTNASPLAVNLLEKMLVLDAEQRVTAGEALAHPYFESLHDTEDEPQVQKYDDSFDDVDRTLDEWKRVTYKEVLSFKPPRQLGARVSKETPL
Sequence of Phosphatidylinositol 4,5-bisphosphate 3-kinase catalytic subunit alpha isoform (Homo sapiens), P42336 [H1047Y] (P42336 whole entry H1047Y, canonical isoform): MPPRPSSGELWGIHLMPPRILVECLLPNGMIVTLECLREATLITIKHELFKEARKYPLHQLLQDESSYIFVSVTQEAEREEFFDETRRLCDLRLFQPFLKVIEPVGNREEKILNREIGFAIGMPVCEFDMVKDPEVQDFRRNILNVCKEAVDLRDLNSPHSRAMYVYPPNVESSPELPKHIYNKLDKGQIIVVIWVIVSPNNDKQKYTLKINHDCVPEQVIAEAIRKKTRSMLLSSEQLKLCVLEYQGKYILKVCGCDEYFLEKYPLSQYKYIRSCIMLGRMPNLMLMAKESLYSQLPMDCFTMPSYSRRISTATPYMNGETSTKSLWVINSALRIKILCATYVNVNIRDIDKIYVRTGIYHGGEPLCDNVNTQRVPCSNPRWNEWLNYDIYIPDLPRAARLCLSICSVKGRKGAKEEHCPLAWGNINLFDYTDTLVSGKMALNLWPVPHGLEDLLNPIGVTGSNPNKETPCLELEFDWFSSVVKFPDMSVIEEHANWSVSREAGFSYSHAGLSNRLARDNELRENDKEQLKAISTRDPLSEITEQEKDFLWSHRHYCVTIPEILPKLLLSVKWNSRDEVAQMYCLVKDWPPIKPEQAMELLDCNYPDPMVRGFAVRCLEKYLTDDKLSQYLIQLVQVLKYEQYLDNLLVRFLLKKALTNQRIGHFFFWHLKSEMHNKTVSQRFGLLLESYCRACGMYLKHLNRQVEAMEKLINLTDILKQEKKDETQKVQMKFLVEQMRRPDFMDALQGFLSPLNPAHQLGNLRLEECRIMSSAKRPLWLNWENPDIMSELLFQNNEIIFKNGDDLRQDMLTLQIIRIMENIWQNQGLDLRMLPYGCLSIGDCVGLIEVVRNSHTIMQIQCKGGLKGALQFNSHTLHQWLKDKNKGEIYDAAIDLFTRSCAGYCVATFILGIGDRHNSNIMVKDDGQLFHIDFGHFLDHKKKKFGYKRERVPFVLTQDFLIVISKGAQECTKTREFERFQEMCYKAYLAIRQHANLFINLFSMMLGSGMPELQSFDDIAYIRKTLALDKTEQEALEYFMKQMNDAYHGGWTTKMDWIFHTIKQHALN
Sequence of Rho-associated protein kinase 1 (Homo sapiens) (Q13464 2-1354 limits assumed): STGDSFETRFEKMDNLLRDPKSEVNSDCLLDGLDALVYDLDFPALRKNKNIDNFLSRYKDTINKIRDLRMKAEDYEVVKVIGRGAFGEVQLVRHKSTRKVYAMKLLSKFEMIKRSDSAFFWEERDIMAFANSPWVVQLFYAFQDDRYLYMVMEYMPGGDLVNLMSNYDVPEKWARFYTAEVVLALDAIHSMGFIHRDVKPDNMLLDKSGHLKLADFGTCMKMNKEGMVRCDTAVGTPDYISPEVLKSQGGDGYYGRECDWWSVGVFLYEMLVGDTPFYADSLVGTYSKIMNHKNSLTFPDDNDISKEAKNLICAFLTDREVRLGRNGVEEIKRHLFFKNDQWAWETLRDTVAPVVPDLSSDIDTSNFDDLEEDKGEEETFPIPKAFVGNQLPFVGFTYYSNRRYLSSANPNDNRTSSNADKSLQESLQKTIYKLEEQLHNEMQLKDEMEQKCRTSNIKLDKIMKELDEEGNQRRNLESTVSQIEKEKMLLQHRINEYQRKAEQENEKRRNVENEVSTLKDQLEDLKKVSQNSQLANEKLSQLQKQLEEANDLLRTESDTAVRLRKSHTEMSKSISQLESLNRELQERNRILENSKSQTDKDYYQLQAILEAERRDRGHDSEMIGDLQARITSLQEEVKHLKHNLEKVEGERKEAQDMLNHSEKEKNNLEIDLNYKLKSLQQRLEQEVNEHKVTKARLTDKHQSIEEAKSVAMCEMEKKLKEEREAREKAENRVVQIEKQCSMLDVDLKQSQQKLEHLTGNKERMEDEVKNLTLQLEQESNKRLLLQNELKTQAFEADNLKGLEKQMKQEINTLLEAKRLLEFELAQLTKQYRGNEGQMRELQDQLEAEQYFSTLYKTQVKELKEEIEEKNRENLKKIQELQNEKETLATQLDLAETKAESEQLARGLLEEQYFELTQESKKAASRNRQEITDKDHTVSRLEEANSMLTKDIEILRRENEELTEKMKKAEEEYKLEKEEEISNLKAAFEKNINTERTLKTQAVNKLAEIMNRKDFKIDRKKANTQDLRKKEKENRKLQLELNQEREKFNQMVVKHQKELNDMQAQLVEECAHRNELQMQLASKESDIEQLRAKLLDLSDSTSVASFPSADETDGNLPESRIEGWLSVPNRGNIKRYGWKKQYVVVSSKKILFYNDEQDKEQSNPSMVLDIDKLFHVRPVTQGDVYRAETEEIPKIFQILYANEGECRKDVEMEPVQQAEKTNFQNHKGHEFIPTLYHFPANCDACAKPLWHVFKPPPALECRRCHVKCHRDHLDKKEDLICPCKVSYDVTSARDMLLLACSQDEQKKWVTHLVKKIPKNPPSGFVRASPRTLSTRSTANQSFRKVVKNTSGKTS
Sequence of Ephrin type-B receptor 3 (Homo sapiens) (P54753 whole entry): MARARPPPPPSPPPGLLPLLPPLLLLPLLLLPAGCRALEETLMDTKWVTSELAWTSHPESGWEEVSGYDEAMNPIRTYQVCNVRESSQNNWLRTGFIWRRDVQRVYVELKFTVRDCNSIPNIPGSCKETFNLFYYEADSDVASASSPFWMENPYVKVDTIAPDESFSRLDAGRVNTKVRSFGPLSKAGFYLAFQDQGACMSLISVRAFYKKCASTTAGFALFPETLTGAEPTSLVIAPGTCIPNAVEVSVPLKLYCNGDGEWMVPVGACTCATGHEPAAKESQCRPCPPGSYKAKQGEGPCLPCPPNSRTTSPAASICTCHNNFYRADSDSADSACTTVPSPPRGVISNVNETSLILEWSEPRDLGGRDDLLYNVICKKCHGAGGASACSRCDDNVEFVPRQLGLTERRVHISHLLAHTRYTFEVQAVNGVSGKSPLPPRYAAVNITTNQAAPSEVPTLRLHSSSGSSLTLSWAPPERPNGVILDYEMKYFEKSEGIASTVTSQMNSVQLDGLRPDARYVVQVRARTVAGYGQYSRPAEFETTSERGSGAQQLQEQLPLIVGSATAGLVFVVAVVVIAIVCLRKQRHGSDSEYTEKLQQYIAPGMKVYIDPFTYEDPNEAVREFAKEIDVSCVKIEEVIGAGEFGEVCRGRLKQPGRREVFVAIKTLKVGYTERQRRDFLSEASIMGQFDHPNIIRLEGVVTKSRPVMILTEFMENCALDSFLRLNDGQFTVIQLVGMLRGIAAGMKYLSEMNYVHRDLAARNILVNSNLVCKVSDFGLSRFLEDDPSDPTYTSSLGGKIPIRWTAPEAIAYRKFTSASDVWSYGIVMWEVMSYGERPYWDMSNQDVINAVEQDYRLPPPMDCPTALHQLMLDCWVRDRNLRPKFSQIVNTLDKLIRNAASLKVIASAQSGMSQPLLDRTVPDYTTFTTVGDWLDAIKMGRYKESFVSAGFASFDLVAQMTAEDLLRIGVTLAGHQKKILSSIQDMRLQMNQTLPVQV

Structure (SMILES): C=CC(=O)Nc1cc(-n2c(=O)ccc3cnc4ccc(-c5ccc(NS(C)(=O)=O)cc5)cc4c32)ccc1C
- GI50 (BaF3 [1]): 4.92 µM
- Activity [2]: 92%
- Activity [3]: 77%
- Activity [4]: 98%
- Activity [5]: 92%
- GI50 (LNCaP C4-2): > 10 µM
- Activity (RV-1 [6]): Active
- Activity [7]: 75%
- Activity [8]: 79%
- Activity [9]: 99%
- Activity [10]: 72%
- GI50 (BaF3 [11]): 6.09 µM
- Activity [12]: 93%
- Activity [13]: 59%
- Activity [14]: 0.74
- Activity [15]: 63%
- Activity [16]: 88%
- Activity [17]: 74%
- Activity [18]: 84%
- Activity [19]: 98%
- Activity (RV-1 [20]): Active
- Activity [21]: 87%
- Activity [22]: 87%
- Activity [23]: 78%
- Activity [24]: 83%
- Activity [25]: 80%
- Activity [26]: 84%
- Activity [27]: 75%
- Activity [28]: 56%
- Activity [29]: 84%
- Activity [30]: 96%
- Activity [31]: 62%
